Measurements as given in PMC4641600, “Novel Activities of Select NSAID R-Enantiomers against Rac1 and Cdc42 GTPases” (PLoS ONE, 2015).

Tests used:
[1] = typical oral dosing (S-Naproxen 500 mg; 6-MNA 750-20000 mg of nabumetone); ref Roche Investigator’s brochure, 9, 10, 17-19, 21, 23; cited from earlier work
[2] = test system: Rac1 and Tiam1 protein levels; assay: Immunoblot of protein levels; type: cell-based, human
Method: Cells were stimulated with EGF at a final concentration of 1 nM for 10 min. Cells were lysed in a RIPA buffer consisting of 50 mM Tris pH 7.4, 1% NP-40, 0.25% sodium deoxycholate, 150 mM NaCl, 1 mM EDTA, 1 mM PMSF, 1 mM sodium vanadate, 10 mM sodium fluoride, 1 μg/mL each of pepstatin, aprotinin and leupeptin, 10 mM sodium pyrophosphate and 10 mM beta-glycerophosphate.
N = 3. See also Figure D in S1 File for time dependent loss of Rac1 membrane localization. N = 3 (B) Quantification of image intensity using Image J of 3 representative confocal images as shown in panel (A) containing 20–30 cells/field normalized to actin and untreated controls. (C) Western blot analyses of lysates from cells treated with 300 μM compound as indicated for 24 h as compared to untreated controls. […] Blots were probed for Tiam1 (200 kDa), GAPDH (37 kDa), Rac1 (20 kDa), as a loading control. (D) Quantification of image intensity using Image J. Each marker was normalized to GAPDH and untreated controls. N = 3.

Cdc42 wt = Cdc42 wt (Homo sapiens, UniProt P60953); assay: Dose response, BODIPY-GTP binding; settings: 10 nM to 100 µM
Chain of Cdc42 wt (P60953 whole entry): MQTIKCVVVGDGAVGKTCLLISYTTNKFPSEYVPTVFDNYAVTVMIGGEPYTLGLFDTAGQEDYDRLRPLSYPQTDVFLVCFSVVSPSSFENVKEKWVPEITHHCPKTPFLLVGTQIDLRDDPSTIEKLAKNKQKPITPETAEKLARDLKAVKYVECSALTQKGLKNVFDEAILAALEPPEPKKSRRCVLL

Rac1 [3] = target: T1, Rac1 (Mus musculus, UniProt P63001); assay: GLISA, Swiss 3T3 cells; type: cell-based
T1 construct: endogenous in cells; host or cells: Swiss 3T3

H-Ras wt = H-Ras wt (Homo sapiens, UniProt P01112); assay: Dose response, BODIPY-GTP binding; settings: 10 nM to 100 µM
Chain of H-Ras wt (P01112 whole entry): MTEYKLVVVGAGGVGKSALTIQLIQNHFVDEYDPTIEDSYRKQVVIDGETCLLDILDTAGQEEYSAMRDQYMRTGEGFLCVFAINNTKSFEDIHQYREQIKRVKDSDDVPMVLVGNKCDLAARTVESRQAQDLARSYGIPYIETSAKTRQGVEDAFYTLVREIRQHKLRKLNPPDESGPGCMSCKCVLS
Method: (§1) For multiplex analyses of small GTPases, 4 μm diameter glutathione-beads (GSH-beads) distinguished by seven different intensities of red fluorescence were used according to our previously described protocols. The GST-GTPases included the following eight Ras-related small GTPases: Rab2 wt, Rab7 wt, Cdc42 wt, Cdc42Q61L activating mutant, H-Ras wt, H-RasG12V, Rac1 wt and Rac1Q61L activating mutant. Briefly, Prestwick Chemical Library® compounds were tested at 10 μM compound and 1% DMSO final concentrations. After a 10 min pre-incubation with the compound BODIPY- FL-GTP (100 nM final) was added to each well and bead associated fluorescence was measured. Sample analysis was conducted with a HyperCyt® high throughput flow cytometry platform. Flow cytometric light scatter at 488 nm and fluorescence emission at 530 +/− 20 nm (FL1) and 665 +/− 10 nm (FL8) were collected on a Cyan ADP flow cytometer (Beckman Coulter, Fullerton, CA). IDLQuery software was used to determine the compound activity in each well. Gating based on forward scatter (FS) and side scatter (SS) parameters was used to identify singlet bead populations. Gating based on FL8 emission distinguishes the beads coated with different proteins, and the median FL1 fluorescence per bead population were calculated. A compound was considered a “potential active” if the change in BODIPY-FL-GTP binding differed greater than 20% from that measured in DMSO treated controls.
(§2) Test compounds identified for follow-up after the primary screen were tested at dilutions ranging from 10 nM to 100 μM final concentration against individual GTPases in multiplex and single-plex assays. Compounds tested in dose response assays were serially diluted 1:3 a total of eight times from a starting concentration of 10 mM giving a 9-point dilution series in DMSO.
(§3) bConfirmatory screens entailed dose response assays conducted in a multiplex format with eight GTPases tested as for primary screen. BODIPY-GTP-binding activity was
(§4) measured in the presence of 10 nM to 100 µM of each of 11 test compounds (4 primary screen hits and 7 additional NSAIDs considered to have chemical similarity to GTPase
(§5) active compounds). GST-GFP coated beads served as a control to detect non-specific dissociation or denaturation caused by compound addition–none of the tested NSAIDs had
(§6) any effect on bead-GST-protein binding. EC50 values were determined using Prism to determine dose response fits as shown in Figure 1 of main text; fits have R2 > 0.9. Active
(§7) compounds based on same definition used as in primary screena. […]

GST-Rac1 = GST-Rac1 (Homo sapiens, UniProt P63000); assay: In vitro nucleotide binding assay on individual GTPase (13 µm GSH beads); settings: GST-Rac1 and GST-Cdc42; BODIPY-GTP 300 nM
Cdc42 = target: T2, Cdc42 (Homo sapiens, UniProt P60953); assay: G-trap flow cytometric effector binding assay, HeLa cells; type: cell-based
T2 construct: endogenous in cells; host or cells: HeLa
T2 sequence (P60953 whole entry): as the sequence (P60953 whole entry) above

Ras-related GTPases = assay: Confirmatory dose response assays on eight Ras-related GTPases; type: binding
Method: as §1, §2, §3, §4, §5, §6, §7
‡A well-characterized selective Cdc42 inhibitor served as a positive control.

[4] = test system: Tiam1 membrane localization; assay: Tiam1 immunolocalization, OvCa433 cells; type: cell-based, human
Method: OvCa433 were plated on coverslips, treated with 300 μM NSAIDs for 1 h, fixed with 3% paraformaldehyde and immunostained for Rac1 or Tiam1. Actin was visualized with rhodamine phalloidin from Invitrogen (F432). Cells were imaged on a Zeiss LSM510 using a 63x objective and quantified using Image J.
Rac1 and Tiam1 antibodies were confirmed in our hands to recognize single protein species of the predicted molecular weight by immunoblot.

Rab7 = Rab7 (Homo sapiens, UniProt P51149); assay: Dose response, BODIPY-GTP binding; settings: 10 nM to 100 µM
Chain of Rab7 (P51149 whole entry, species assumed): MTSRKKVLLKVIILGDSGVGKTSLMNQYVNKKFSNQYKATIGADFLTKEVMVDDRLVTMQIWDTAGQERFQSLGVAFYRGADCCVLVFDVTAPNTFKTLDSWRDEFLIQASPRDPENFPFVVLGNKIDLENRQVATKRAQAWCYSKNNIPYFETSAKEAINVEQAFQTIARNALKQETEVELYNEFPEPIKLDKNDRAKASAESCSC

[5] = test system: OvCa429 and OvCa433 cells; assay: Boyden chamber cell migration assay; type: cell-based, human; settings: Homo sapiens; estimated from limited dose response data; read-out: IC50 migration Rac1/Cdc42 dependent (est)
[6] = test system: Rac1 membrane localization; assay: Rac1 immunolocalization, OvCa433 cells; type: cell-based, human
Rac1 [7] = target: T3, Rac1 (Homo sapiens, UniProt P63000); assay: GLISA, OvCa433 cells; type: cell-based; settings: 300 μM, 1 h pretreatment, 10 ng/ml EGF 2 min
T3 construct: endogenous in cells; host or cells: HeLa

Rac1 [8] = target: T3, Rac1; assay: G-trap flow cytometric effector binding assay, HeLa cells; type: cell-based
[9] = target: Cdc42Q61L activating mutant (Homo sapiens, UniProt P60953, Q61L); assay: Dose response, BODIPY-GTP binding
Chain of Cdc42Q61L activating mutant (P60953 whole entry Q61L): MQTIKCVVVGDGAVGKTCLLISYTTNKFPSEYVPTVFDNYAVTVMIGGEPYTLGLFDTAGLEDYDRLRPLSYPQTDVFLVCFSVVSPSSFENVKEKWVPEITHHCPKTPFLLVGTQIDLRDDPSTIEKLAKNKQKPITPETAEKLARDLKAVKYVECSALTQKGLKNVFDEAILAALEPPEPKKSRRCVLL

Rab2 = Rab2 (Homo sapiens, UniProt P61019); assay: Dose response, BODIPY-GTP binding; settings: 10 nM to 100 µM
Chain of Rab2 (P61019 whole entry, species assumed): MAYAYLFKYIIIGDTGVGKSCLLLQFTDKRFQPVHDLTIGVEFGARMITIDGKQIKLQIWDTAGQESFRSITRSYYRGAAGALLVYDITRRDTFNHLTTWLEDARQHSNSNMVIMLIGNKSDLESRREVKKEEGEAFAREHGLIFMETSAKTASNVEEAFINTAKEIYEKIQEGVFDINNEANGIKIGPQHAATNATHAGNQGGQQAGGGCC

[10] = immunofluorescence quantified using ImageJ

COc1ccc2cc(CC(=O)O)ccc2c1 [6-MNA, 6-methoxy-2-napthalene acetic acid]
Serum Cmax [1]: 41.2 µg/mL
total Rac1 or Tiam1 protein levels ([2]; 300 μM, 24 h, immunoblot): did not alter
Rac protein expression ([2]; immunoblot analysis): No change
Cdc42 wt EC50 (Cdc42 wt): inactive
EGF-mediated Rac1 activation (Rac1 [3]; 300 μM, 15 min or 1 h (either time point)): no inhibitory effect
inhibition at 300 µM (Rac1 [3]; Swiss-3T3, at 300 µM): 0%
H-Ras wt EC50 (H-Ras wt): inactive
inhibition of BODIPY-GTP binding (GST-Rac1): inactive
fold lower potency than R-naproxen, Cdc42 (Cdc42): 3 fold
activity against the GTPases in confirmatory dose response assays (words) (Ras-related GTPases; 10 nM to 100 µM): lacked activity
activity against the GTPases in confirmatory dose response assays (words) (Ras-related GTPases; 10 nM to 100 μM, listed as 6MNA): inactive
effect (Ras-related GTPases; at 0.1 mM, against all GTPases): less than 20%
Tiam1 membrane localization ([4]; 300 μM): only slightly reduced
Tiam1 GEF PM localiz. [4, 10]: 73%
Rab7 EC50 (Rab7): inactive
IC50 [5]: > 300 µM
Rac1 membrane localization ([6]; 300 μM): no effect
Rac PM Localiz. [6, 10]: 98%
Rac1 activation by EGF (Rac1 [7]): no or limited effect
fold lower potency than R-naproxen, Rac1 (Rac1 [8]): up to 6 fold
activity against the constitutively active Cdc42 mutant [9]: weak activity
EC50 ([9]; 10 nM to 100 µM, read-out: Cdc42 (act) EC50): 12.3 µM
Rab2 EC50 (Rab2): inactive
